This passage reports Ki and GI50 results from patent US11596639B2, “Substituted indole Mcl-1 inhibitors” (Vanderbilt University, priority 2016, dated 2023).

pKi: −log10 of the molar value. Read-outs that look alike come from different tables or passages of the source.

In one test the target is Mcl-1 (Homo sapiens (Human), UniProt Q07820). Description: Fluorescence polarization anisotropy (FPA) competition assay, FITC-Bak or FITC-Bim BH3 peptide. Format: binding. The conditions noted are these: read-out: Ki for Inhibition of Mcl-1 by FPA assay.
Test [1] concerns H929 human cancer cell lines. Briefly: Cellular viability / proliferation (Cell TiterGlo, 72 h). The test is classed as cell-based. Put shortly: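 Cells were seeded at 1,000 cells/well in medium with 10% FBS and dosed 24 h later with a 2-fold serial dilution of compound (top concentration 50 μM, final DMSO <1%).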
Setting [2] is: Homo sapiens, NCI-H929, 72 h, read-out: GI50 on cellular proliferation of H929 human cancer cell lines, H929 cells, 72 h, Cell TiterGlo, 10% FBS.

Sequence of Mcl-1 (Q07820 172-327): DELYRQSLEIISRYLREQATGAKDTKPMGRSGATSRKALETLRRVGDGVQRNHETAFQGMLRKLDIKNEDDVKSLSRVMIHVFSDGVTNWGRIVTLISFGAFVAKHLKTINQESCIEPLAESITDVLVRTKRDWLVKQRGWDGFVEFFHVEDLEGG

In the case of `Cc1cc(OCCCc2c3n(c4c(-c5c(C)n[nH]c5C)c(Cl)ccc24)[C@H](C)CN(c2cn(C)c4ccc(C(=O)O)cc24)C3=O)cc(C)c1Cl` [Example 129, (R)-3-(7-chloro-10-(3-(4-chloro-3,5-dimethylphenoxy)propyl)-6-(3,5-dimethyl-1H-pyrazol-4-yl)-4-methyl-1-oxo-3,4-dihydropyrazino[1,2-a]indol-2(1H)-yl)-1-methyl-1H-indole-5-carboxylic acid], the pKi on Mcl-1 was more than 9.00. For the same molecule, in test [1] (setting [2]), the GI50 is 550 nM.

Regarding `Cc1cc(OCCCc2c3n(c4c(-c5c(C)ncnc5C)c(Cl)ccc24)CCCN(c2cc(C(=O)O)c4ccn(C)c4c2)C3=O)cc(C)c1Cl` [Example 130, 6-[8-Chloro-11-[3-(4-chloro-3,5-dimethyl-phenoxy)propyl]-7-(4,6-dimethylpyrimidin-5-yl)-1-oxo-4,5-dihydro-3H-[1,4]diazepino[1,2-a]indol-2-yl]-1-methyl-indole-4-carboxylic acid], the negative logarithm of the Ki (pKi) at Mcl-1 was more than 9.00. The GI50 in test [1] (setting [2]) amounted to 2400 nM.

As to `Cc1cc(OCCCc2c3n(c4c(-c5c(C)nn(C)c5C)c(Cl)ccc24)[C@H](C)CN(c2cc(C(=O)O)c4cnn(C(C)C)c4c2)C3=O)cc(C)c1Cl` [Example 131, 6-[(4R)-7-chloro-10-[3-(4-chloro-3,5-dimethyl-phenoxy)propyl]-4-methyl-1-oxo-6-(1,3,5-trimethylpyrazol-4-yl)-3,4-dihydropyrazino[1,2-a]indol-2-yl]-1-isopropyl-indazole-4-carboxylic acid], the pKi on Mcl-1 was more than 9.00. Besides, in test [1] (setting [2]), the GI50 was determined as 1900 nM.

In the case of `Cc1cc(OCCCc2c3n(c4c(-c5c(C)nn(C)c5C)c(Cl)ccc24)[C@H](C)CN(c2cccc4nn(C)c(C(=O)O)c24)C3=O)cc(C)c1Cl` [Example 132, 4-[(4R)-7-chloro-10-[3-(4-chloro-3,5-dimethyl-phenoxy)propyl]-4-methyl-1-oxo-6-(1,3,5-trimethylpyrazol-4-yl)-3,4-dihydropyrazino[1,2-a]indol-2-yl]-2-methyl-indazole-3-carboxylic acid], the pKi on Mcl-1 was more than 9.00. Further, the GI50 in test [1] (setting [2]) was 840 nM.

`Cc1cc(OCCCc2c3n(c4c(-c5c(C)nn(C)c5C)c(Cl)ccc24)[C@H](C)CN(c2cccc4nn(C)c(C(=O)O)c24)C3=O)cc(C)c1Cl` [Example 133, 4-[(4R)-7-chloro-10-[3-(4-chloro-3,5-dimethyl-phenoxy)propyl]-4-methyl-1-oxo-6-(1,3,5-trimethylpyrazol-4-yl)-3,4-dihydropyrazino[1,2-a]indol-2-yl]-2-methyl-indazole-3-carboxylic acid]: the pKi on Mcl-1 was more than 9.00. The GI50 in test [1] (read-out: GI50 on cellular proliferation of H929 human cancer cell lines, H929 cells, 72 h, Cell TiterGlo, 10% FBS) is 1400 nM.

In the case of `Cc1cc(OCCCc2c3n(c4c(-c5c(C)nn(C)c5C)c(Cl)ccc24)[C@H](C)CN(c2cccc4c2ccn4CC(=O)O)C3=O)cc(C)c1Cl` [Example 134, (R)-2-(4-(7-Chloro-10-(3-(4-chloro-3,5-dimethylphenoxy)propyl)-4-methyl-1-oxo-6-(1,3,5-trimethyl-1H-pyrazol-4-yl)-3,4-dihydropyrazino[1,2-a]indol-2(1H)-yl)-1H-indol-1-yl)acetic acid], the pKi on Mcl-1 was more than 9.00. In addition, the GI50 in test [1] (setting [2]) came to 11000 nM.

On to `Cc1cc(OCCCc2c3n(c4c(-c5c(C)nn(CC6CCN(C)CC6)c5C)c(Cl)ccc24)[C@H](C)CN(c2cccc4c(C(=O)O)cn(C)c24)C3=O)cc(C)c1Cl` [Example 137, (R)-7-(7-chloro-10-(3-(4-chloro-3,5-dimethylphenoxy)propyl)-6-(3,5-dimethyl-1-((1-methylpiperidin-4-yl)methyl)-1H-pyrazol-4-yl)-4-methyl-1-oxo-3,4-dihydropyrazino[1,2-a]indol-2(1H)-yl)-1-methyl-1H-indole-3-carboxylic acid], for which the pKi at Mcl-1 is 8.92. In addition, the GI50 in test [1] (setting [2]) was determined as 460 nM.

Consider `Cc1cc(OCCCc2c3n(c4c(-c5c(C)nn(C)c5C)c(Cl)ccc24)[C@H](C)CN(c2cc(C(=O)O)c4ncccc4c2)C3=O)cc(C)c1Cl` [Example 138, (R)-6-(7-chloro-10-(3-(4-chloro-3,5-dimethylphenoxy)propyl)-4-methyl-1-oxo-6-(1,3,5-trimethyl-1H-pyrazol-4-yl)-3,4-dihydropyrazino[1,2-a]indol-2(1H)-yl)quinoline-8-carboxylic acid], for which the pKi on Mcl-1 was 8.66. In addition, the GI50 in test [1] (setting [2]) stood at 4800 nM.

Turning to `Cc1cc(OCCCc2c3n(c4c(-c5c(C)nn(C)c5C)c(Cl)ccc24)[C@H](C)[C@@H](C)NC3=O)cc(C)c1Cl` [Example 140, (3R,4R)-7-chloro-10-(3-(4-chloro-3,5-dimethylphenoxy)propyl)-3,4-dimethyl-6-(1,3,5-trimethyl-1H-pyrazol-4-yl)-3,4-dihydropyrazino[1,2-a]indol-1(2H)-one], at Mcl-1, the pKi was 7.10. For the same molecule, the GI50 in test [1] (setting [2]) was found to be 7600 nM.

`Cc1cc(OCCCc2c3n(c4c(-c5c(C)nn(C)c5C)c(Cl)ccc24)[C@H](C)[C@@H](C)N(c2cccc(C(=O)O)c2)C3=O)cc(C)c1Cl` [Example 141, 3-((3R,4R)-7-chloro-10-(3-(4-chloro-3,5-dimethylphenoxy)propyl)-3,4-dimethyl-1-oxo-6-(1,3,5-trimethyl-1H-pyrazol-4-yl)-3,4-dihydropyrazino[1,2-a]indol-2(1H)-yl)benzoic acid]: on Mcl-1, the pKi is 8.35. In addition, in test [1] (setting [2]), the GI50 was determined as 9500 nM.

In the case of `Cc1cc(OCCCc2c3n(c4c(-c5c(C)nn(C)c5C)c(Cl)ccc24)[C@H](C)[C@@H](C)N(c2ccc(C(=O)O)cc2)C3=O)cc(C)c1Cl` [Example 142, 4-((3R,4R)-7-chloro-10-(3-(4-chloro-3,5-dimethylphenoxy)propyl)-3,4-dimethyl-1-oxo-6-(1,3,5-trimethyl-1H-pyrazol-4-yl)-3,4-dihydropyrazino[1,2-a]indol-2(1H)-yl)benzoic acid], the pKi on Mcl-1 was 8.42. Besides, the GI50 in test [1] (setting [2]) worked out at 7400 nM.

Turning to `Cc1cc(OCCCc2c3n(c4c(-c5c(C)nn(CC(=O)O)c5C)c(Cl)ccc24)CCCN(c2cccc4cccnc24)C3=O)cc(C)c1Cl` [Example 144, 2-(4-(8-Chloro-11-(3-(4-chloro-3,5-dimethylphenoxy)propyl)-1-oxo-2-(quinolin-8-yl)-2,3,4,5-tetrahydro-1H-[1,4]diazepino[1,2-a]indol-7-yl)-3,5-dimethyl-1H-pyrazol-1-yl)acetic acid], the pKi at Mcl-1 is more than 9.00. The GI50 in test [1] (setting [2]) was 6500 nM.

Consider `Cc1cc(OCCCc2c3n(c4c(-c5c(C)nn(C)c5C)c(Cl)ccc24)[C@H](C)CN(c2cn(C)c4c(C)cc(C(=O)O)cc24)C3=O)cc(C)c1Cl` [Example 145, (R)-3-(7-chloro-10-(3-(4-chloro-3,5-dimethylphenoxy)propyl)-4-methyl-1-oxo-6-(1,3,5-trimethyl-1H-pyrazol-4-yl)-3,4-dihydropyrazino[1,2-a]indol-2(1H)-yl)-1,7-dimethyl-1H-indole-5-carboxylic acid], for which the pKi at Mcl-1 is more than 9.00. Also, the GI50 in test [1] (setting [2]) is 360 nM.

As for `Cc1cc(OCCCc2c3n(c4c(-c5c(C)ncnc5C)c(Cl)ccc24)CCCN(c2ccc(C(=O)O)c4ncccc24)C3=O)cc(C)c1Cl` [Example 147, 5-[8-Chloro-11-[3-(4-chloro-3,5-dimethyl-phenoxy)propyl]-7-(4,6-dimethylpyrimidin-5-yl)-1-oxo-4,5-dihydro-3H-[1,4]diazepino[1,2-a]indol-2-yl]quinoline-8-carboxylic acid], at Mcl-1, the pKi is 8.74. The GI50 in test [1] (setting [2]) worked out at 4300 nM.

On to `Cc1cc(OCCCc2c3n(c4c(-c5c(C)ncnc5C)c(Cl)ccc24)[C@H](C)CN(c2cccc4c(C(=O)O)cccc24)C3=O)cc(C)c1Cl` [Example 148, 5-[(4R)-7-chloro-10-[3-(4-chloro-3,5-dimethyl-phenoxy)propyl]-6-(4,6-dimethylpyrimidin-5-yl)-4-methyl-1-oxo-3,4-dihydropyrazino[1,2-a]indol-2-yl]naphthalene-1-carboxylic acid], for which the pKi at Mcl-1 was more than 9.00. For the same molecule, in test [1] (setting [2]), the GI50 came to 650 nM.

Consider `Cc1cc(OCCCc2c3n(c4c(-c5c(C)n[nH]c5C)c(Cl)ccc24)CCCN(c2cccc4cccnc24)C3=O)cc(C)c1Cl` [Example 150, 8-Chloro-11-(3-(4-chloro-3,5-dimethylphenoxy)propyl)-7-(3,5-dimethyl-1H-pyrazol-4-yl)-2-(quinolin-8-yl)-2,3,4,5-tetrahydro-1H-[1,4]diazepino[1,2-a]indol-1-one], for which the pKi at Mcl-1 is 7.89. In addition, in test [1] (H929 cells, 72 h, Cell TiterGlo, 10% FBS, read-out: GI50 on cellular proliferation of H929 human cancer cell lines), the GI50 worked out at 5100 nM.

Consider `Cc1cc(OCCCc2c3n(c4c(-c5c(C)ncnc5C)c(Cl)ccc24)CCCN(c2cccc4c(C(=O)O)cccc24)C3=O)cc(C)c1Cl` [Example 151, 5-[8-Chloro-11-[3-(4-chloro-3,5-dimethyl-phenoxy)propyl]-7-(4,6-dimethylpyrimidin-5-yl)-1-oxo-4,5-dihydro-3H-[1,4]diazepino[1,2-a]indol-2-yl]naphthalene-1-carboxylic acid], for which the pKi on Mcl-1 was more than 9.00. For the same molecule, the GI50 in test [1] (setting [2]) worked out at 2100 nM.

In the case of `Cc1cc(OCCCc2c3n(c4c(-c5c(C)ncnc5C)c(Cl)ccc24)[C@H](C)CN(c2cc(C(=O)O)c4ccn(C)c4c2)C3=O)cc(C)c1Cl` [Example 152, 6-[(4R)-7-chloro-10-[3-(4-chloro-3,5-dimethyl-phenoxy)propyl]-6-(4,6-dimethylpyrimidin-5-yl)-4-methyl-1-oxo-3,4-dihydropyrazino[1,2-a]indol-2-yl]-1-methyl-indole-4-carboxylic acid], the pKi on Mcl-1 was more than 9.00. Besides, the GI50 in test [1] (setting [2]) amounted to 850 nM.

Turning to `Cc1cc(OCCCc2c3n(c4c(-c5c(C)ncnc5C)c(Cl)ccc24)[C@H](C)CN(c2cn(C)c4cc(C(=O)O)ccc24)C3=O)cc(C)c1Cl` [Example 153, 3-[(4R)-7-chloro-10-[3-(4-chloro-3,5-dimethyl-phenoxy)propyl]-6-(4,6-dimethylpyrimidin-5-yl)-4-methyl-1-oxo-3,4-dihydropyrazino[1,2-a]indol-2-yl]-1-methyl-indole-6-carboxylic acid], the pKi at Mcl-1 was more than 9.00. In test [1] (setting [2]), the GI50 turned out to be 410 nM.
